# Measurements as given in the supplement of paper PMC10307832.
# Experiments:
# Test in all cases: relative viability (nuclei count vs DMSO), 5 days (fraction); higher = more cells survive
# [1] = compound: C[C@]1(O)C[C@@H](c2nc(-c3ccc4ccc(-c5ccccc5)nc4c3)c3c(N)nccn32)C1 [Linsitinib] + N=C(N)NC(=N)NCCc1ccccc1 [Phenformin] (partner 250 µM)
# Method in brief: (§1)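 Relative viability was taken as the ratio of nuclei in treated wells to nuclei in vehicle wells. Lung cancer cell lines in 1536-well plates received compounds by pin tool one day after seeding, either one drug alone or a fixed anchor-drug dose plus five library-drug doses (not always all listed) in √10 steps. Nuclei were counted on 4× images after 5 days of treatment, and values are medians of duplicate plates.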
# [2] = compound: C[C@]1(O)C[C@@H](c2nc(-c3ccc4ccc(-c5ccccc5)nc4c3)c3c(N)nccn32)C1 [Linsitinib] + Nc1ncn([C@H]2C[C@H](O)[C@@H](CO)O2)c(=O)n1 [Decitabine] (partner 2 µM)
# Method in brief: as §1
# [3] = compound: Cc1ccc(C(=O)N(CCCN)[C@@H](c2nc3cc(Cl)ccc3c(=O)n2Cc2ccccc2)C(C)C)cc1 [Ispinesib] + COc1cc2c(Oc3ccc(NC(=O)C4(C(=O)Nc5ccc(F)cc5)CC4)cc3F)ccnc2cc1OCCCN1CCOCC1 [Foretinib] (partner 0.25 µM)
# Method in brief: as §1
# [4] = compound: Cc1ccc(C(=O)N(CCCN)[C@@H](c2nc3cc(Cl)ccc3c(=O)n2Cc2ccccc2)C(C)C)cc1 [Ispinesib] + O=C(CCCCCCC(=O)Nc1ccccc1)NO [Vorinostat] (partner 1 µM)
# Method in brief: as §1
cell line,measurement,setting,value
UMC-11,relative viability,[1]; first compound 0.01 µM,0.332
same,relative viability,[1]; first compound 0.03162 µM,0.29
same,relative viability,[1]; first compound 0.1 µM,0.343
same,relative viability,[1]; first compound 1 µM,0.321
same,relative viability,[2]; first compound 0.01 µM,0.627
same,relative viability,[2]; first compound 0.03162 µM,0.458
same,relative viability,[2]; first compound 0.1 µM,0.642
same,relative viability,[2]; first compound 0.3162 µM,0.423
same,relative viability,[2]; first compound 1 µM,0.527
same,relative viability,[3]; first compound 0.001 µM,1.03
same,relative viability,[3]; first compound 0.003162 µM,0.995
same,relative viability,[3]; first compound 0.01 µM,0.889
same,relative viability,[3]; first compound 0.03162 µM,0.322
same,relative viability,[3]; first compound 0.1 µM,0.233
same,relative viability,[4]; first compound 0.001 µM,0.308
same,relative viability,[4]; first compound 0.003162 µM,0.459
same,relative viability,[4]; first compound 0.01 µM,0.327
same,relative viability,[4]; first compound 0.03162 µM,0.281
same,relative viability,[4]; first compound 0.1 µM,0.319
